Data from patent US9487504B2, “Imidazolyl analogs as syk inhibitors” (Merck Sharp & Dohme Corp., priority 2012, dated 2016).

Target: T1, recombinant human GST-Syk (Homo sapiens, UniProt P43405)
T1 construct: purchased Carna Biosciences 08-176
Assay: Homogeneous Time-Resolved Fluorescence (HTRF) assay for the recombinant human Syk enzyme
Assay type: biochemical
Conditions: ATP 25 μM, 10-dose titration, read-out: rhSYK Activity
Description: Syk inhibition may be determined using the following assay protocol:
Homogeneous Time-Resolved Fluorescence (HTRF) Assay for the Recombinant Human Syk Enzyme:
A recombinant GST-hSyk fusion protein was used to measure potency of compounds to inhibit human Syk activity. The recombinant human GST-Syk (Carna Biosciences #08-176) ([…]) was incubated with various concentrations of the inhibitor diluted in DMSO (0.1% final concentration) for 10 minutes at room temperature in 15 mM Tris-HCl (pH 7.5), 0.01% tween 20, 2 mM DTT in 384 well plate format. To initiate the reaction the biotinylated substrate peptide (250 nM final concentration) that contains the phosphorylation site for Syk was added with magnesium (5 mM final concentration) and ATP (25 μM final concentration). Final volume of the reaction was 10 μL. Phosphorylation of the peptide was allowed to proceed for 45 minutes at room temperature. To quench the reaction and detect the phosphorylated product, 2 nM of a Europium-anti-phosphotyrosine antibody (Perkin Elmer #AD0161) and 70 nM SA-APC (Perkin-Elmer #CR130-100) were added together in 15 mM Tris pH 7.5, 40 mM EDTA, 0.01% tween 20. Final volume of the quenching solution was 10 μL. The resulting HTRF signal was measured after 30 minutes on an EnVision (Perkin-Elmer) reader using a time-resolved fluorescence protocol. IC50 was determined following 10-dose titration (10 μM to 0.508 nM) and four parameter logistic curve fitting using the Merck Assay Data Analyzer. The rhSyk activity (IC50) is expressed as +++ (100 nM or less), ++ (between 100 and 1000 nM), + (between 1 and 10 μM).

| SMILES | IC50 [µM] |
| --- | --- |
| COC(=O)c1cn(-c2cc(C)cc(Nc3cc(Cl)ccn3)n2)cn1 [Example 97, Methyl 1-{6-[(4-chloropyridin-2-yl)amino]-4-methylpyridin-2-yl}-1H-imidazole-4-carboxylate] | ≤ 0.1 |
| Cc1cc(Nc2nccc(C(F)(F)F)n2)cc(-n2cnc([C@]3(O)CC[C@@H](C(N)=O)CC3)c2)c1 [Example 34, cis-4-hydroxy-4-[1-(3-methyl-5-{[4-(trifluoromethyl)-pyrimidin-2-yl]amino}phenyl)-1H-imidazol-4-yl]-cyclohexanecarboxamide] | ≤ 0.1 |
| CCCCOC(=O)[C@H]1CC[C@H](C(C)(O)c2cn(-c3cc(C)cc(Nc4nccc(C(F)(F)F)n4)c3)cn2)CC1 (relative stereo) [Example 12, Butyl trans-4-{1-hydroxy-1-[1-(3-methyl-5-[(4-(trifluoromethyl)-pyrimidin-2-yl]amino}-phenyl)-1H-imidazol-4-yl]ethyl}cyclohexane-carboxylate] | 0.1 to 1 |
| COC(=O)c1cn(-c2cccc(Nc3cc(Cl)ccn3)n2)cn1 [Example 69, Methyl 1-{6-[(4-chloropyridin-2-yl)amino]pyridin-2-yl}-1H-imidazole-4-carboxylate] | 0.1 to 1 |
| COC(=O)C[C@H]1CC[C@@](O)(c2cn(-c3cc(C)cc(Nc4nccc(C(F)(F)F)n4)c3)cn2)CC1 [Example 17, Methyl {trans-4-hydroxy-4-[1-(3-methyl-5-{[4-(trifluoromethyl)pyrimidin-2-yl]amino}phenyl)-1H-imidazol-4-yl]-cyclohexyl}acetate] | ≤ 0.1 |
| Cc1cc(Nc2nccc(C(F)(F)F)n2)cc(-n2cnc(C(C)(O)[C@H]3CC[C@H](C(N)=O)CC3)c2)c1 (relative stereo) [Example 7, trans-4-{1-hydroxy-1-[1-(3-methyl-5-{[4-(trifluoromethyl)pyrimidin-2-yl]amino}phenyl)-1H-imidazol-4-yl]ethyl]cyclohexanecarboxamide] | ≤ 0.1 |
| CC(C)(O)c1cn(-c2cc(Cl)cc(Nc3cc(C(F)(F)F)ccn3)n2)cn1 [Example 90, 2-[1-(4-chloro-6-{[4-(trifluoromethyl)pyridin-2-yl]amino}pyridin-2-yl)-1H-imidazol-4-yl]propan-2-ol] | ≤ 0.1 |
| Cc1cc(Nc2cc(C3CC3)ccn2)nc(-n2cnc([C@]3(O)CC[C@@H](O)CC3)c2)c1 [Example 45, cis-1-(1-{6-[(4-cyclopropylpyridin-2-yl)amino]-4-methylpyridin-2-yl}-1H-imidazol-4-yl)cyclohexane-1,4-diol] | ≤ 0.1 |
| Cc1cc(Nc2cc(C(F)(F)F)ccn2)nc(-n2cnc(CCC(=O)O)c2)c1 [Example 74, 3-[1-(4-methyl-6-{[4-(trifluoromethyl)-pyridin-2-yl]amino}-pyridin-2-yl)-1H-imidazol-4-yl]-propanoic acid] | 0.1 to 1 |
| Cc1cc(Nc2nccc(C(F)(F)F)n2)cc(-n2cnc([C@]3(O)CC[C@@](C)(C(=O)O)C[C@H]3O)c2)c1 (single isomer, unassigned) [5 (isomer 2)] | ≤ 0.1 |
| Cc1cc(Nc2cc(C3CC3)ccn2)nc(-n2cnc([C@]3(O)CC[C@@H](OC(=O)c4ccccc4)CC3)c2)c1 [Example 50, cis-4-(1-{6-[(4-cyclopropylpyridin-2-yl)amino]-4-methylpyridin-2-yl}-1H-imidazol-4-yl)-4-hydroxycyclohexyl benzoate] | ≤ 0.1 |
| Cc1cc(Nc2nccc(C(F)(F)F)n2)cc(-n2cnc([C@]3(O)CC[C@@H](CC(=O)O)CC3)c2)c1 [Example 16, {cis-4-hydroxy-4-[1-(3-methyl-5-{[4-(trifluoromethyl)pyrimidin-2-yl]amino}phenyl)-1H-imidazol-4-yl]-cyclohexyl}acetic acid] | ≤ 0.1 |
| Nc1cc(Nc2cc(Cl)ccn2)nc(-n2cnc(C(O)(C3CC3)C3CC3)c2)c1 [Example 79, (1-{4-amino-6-[(4-chloropyridin-2-yl)amino}pyridin-2-yl}-1H-imidazol-4-yl)(dicyclopropyl)methanol] | ≤ 0.1 |
| Cc1cc(Nc2nccc(C(F)(F)F)n2)cc(-n2cnc(C(=O)O)c2)c1 [Example 78, 1-(3-methyl-5-{[4-(trifluoromethyl)-pyrimidin-2-yl]amino}-phenyl)-1H-imidazole-4-carboxylic acid] | ≤ 0.1 |
| CC(C)(O)CCc1cn(-c2cc(Nc3nccc(C(F)(F)F)n3)cc(N3CCOCC3)c2)cn1 [Example 105, 2-methyl-4-[1-(3-morpholin-4-yl-5-{[4-(trifluoromethyl)pyrimidin-2-yl]amino}-phenyl)-1H-imidazol-4-yl]butan-2-ol] | ≤ 0.1 |
| Cc1cc(Nc2cc(C(F)(F)F)ccn2)nc(-n2cnc([C@]3(O)CC[C@H](OC(=O)c4ccccc4)CC3)c2)c1 [Example 63, trans-4-hydroxy-4-[1-(4-methyl-6-{[4-(trifluoromethyl)pyridin-2-yl]amino}pyridin-2-yl)-1H-imidazol-4-yl]cyclohexyl benzoate] | ≤ 0.1 |
| Cc1cc(Nc2nccc(C(F)(F)F)n2)cc(-n2cnc([C@@]3(O)CC[C@@](C)(C(=O)O)C[C@@H]3O)c2)c1 (single isomer, unassigned) [5 (isomer 1)] | ≤ 0.1 |
| CCOC(=O)C(C)(C)C1CCC(O)(c2cn(-c3cc(C)cc(Nc4cc(C(F)(F)F)ccn4)n3)cn2)CC1 (stereo not drawn) [Example 24, Ethyl 2-{trans-4-hydroxy-4-[1-(4-methyl-6-{[4-(trifluoromethyl)-pyridin-2-yl]amino}-pyridin-2-yl)-1H-imidazol-4-yl]-cyclohexyl}-2-methylpropanoate] | 0.1 to 1 |
| Cc1cc(Nc2nccc(C(F)(F)F)n2)cc(-n2cc(C(=O)O)nc2C)c1 [Example 67, 2-Methyl-1-(3-methyl-5-{[4-(trifluoromethyl)pyrimidin-2-yl]amino}phenyl)-1H-imidazole-4-carboxylic acid] | ≤ 0.1 |
| Cc1cc(Nc2nccc(C(F)(F)F)n2)cc(-n2cnc([C@]3(O)CC[C@H](C(N)=O)CC3)c2)c1 [Example 33, trans-4-hydroxy-4-[1-(3-methyl-5-{[4-(trifluoro-methyl)pyrimidin-2-yl]amino}phenyl)-1H-imidazol-4-yl]-cyclohexanecarboxamide] | ≤ 0.1 |

Next, values leading:

| IC50 [µM] | SMILES |
| --- | --- |
| ≤ 0.1 | Cc1cc(Nc2nccc(C)n2)cc(-n2cnc(C(C)(O)[C@H]3CC[C@H](C(=O)O)CC3)c2)c1 (relative stereo) [Example 9, trans-4-[1-hydroxy-1-(1-{3-methyl-5-[(4-methyl-pyrimidin-2-yl)amino]-phenyl}-1H-imidazol-4-yl)ethyl]cyclohexane-carboxylic acid] |
| ≤ 0.1 | OC(c1cn(-c2cccc(Nc3cc(Cl)ccn3)n2)cn1)(C1CC1)C1CC1 [Example 81, (1-{6-[(4-chloropyridin-2-yl)amino]pyridin-2-yl}-1H-imidazol-4-yl)(dicyclopropyl)-methanol] |
| ≤ 0.1 | Cc1cc(Nc2nccc(C(F)(F)F)n2)cc(-n2cnc(C3(O)CCC(O)CC3)c2)c1 (stereo not drawn) [Example 65, trans-1-[1-(3-methyl-5-{[4-(trifluoromethyl)pyrimidin-2-yl]amino}phenyl)-1H-imidazol-4-yl]cyclohexane-1,4-diol] |
| ≤ 0.1 | Cc1cc(Nc2nccc(C(F)(F)F)n2)cc(-n2cnc(-c3ccc(C(=O)O)cc3)c2)c1 [Example 71, 4-[1-(3-methyl-5-{[4-(trifluoromethyl)pyrimidin-2-yl]amino}-phenyl)-1H-imidazol-4-yl]benzoic acid] |
| ≤ 0.1 | COc1ccnc(Nc2cc(C)cc(-n3cnc(C4(O)CCC(OC(=O)c5ccccc5)CC4)c3)c2)n1 (stereo not drawn) [Example 41, cis-4-hydroxy-4-(1-{3-[(4-methoxypyrimidin-2-yl)amino]-5-methylphenyl}-1H-imidazol-4-yl)cyclohexyl benzoate] |
| ≤ 0.1 | CCOC(=O)[C@H]1CC[C@@](O)(c2cn(-c3cc(C)cc(Nc4cc(C(F)(F)F)ccn4)n3)cn2)CC1 [Example 28, Ethyl trans-4-hydroxy-4-[1-(4-methyl-6-{[4-(trifluoromethyl)pyridin-2-yl]amino}pyridin-2-yl)-1H-imidazol-4-yl]cyclohexane-carboxylate] |
| ≤ 0.1 | Cc1cc(Nc2nccc(C(F)(F)F)n2)cc(-n2cnc([C@]3(O)CC[C@](C)(C(=O)O)CC3)c2)c1 [Example 20, trans-4-hydroxy-1-methyl-4-[1-(3-methyl-5-{[4-(trifluoromethyl)-pyrimidin-2-yl]amino)-phenyl)-1H-imidazol-4-yl]cyclohexanecarboxylic acid] |
| ≤ 0.1 | Cc1cc(Nc2nccc(C(F)(F)F)n2)cc(-n2cnc(C(C)(C)O)c2)c1 [Example 99, 2-[1-(3-methyl-5-{[4-(trifluoromethyl)pyrimidin-2-yl]amino}phenyl)-1H-imidazol-4-yl]propan-2-ol] |
| ≤ 0.1 | CCOC(=O)C1(C)CCC(O)(c2cn(-c3cc(C)cc(Nc4nccc(C(F)(F)F)n4)c3)cn2)CC1 (stereo not drawn) [Example 22, Ethyl trans-4-hydroxy-1-methyl-4-[1-(3-methyl-5-{[4-(trifluoromethyl)pyrimidin-2-yl]amino}phenyl)-1H-imidazol-4-yl]cyclohexanecarboxylate] |

Same assay, conditions: ATP 25 μM, 10-dose titration, read-out: rhSYK IC50

| SMILES | IC50 [µM] |
| --- | --- |
| Cc1cc(Nc2cc(C3CC3)ccn2)nc(-n2cnc([C@]3(O)CC[C@@H](O)CC3)c2)c1 [Example 45, cis-1-(1-{6-[(4-cyclopropylpyridin-2-yl)amino]-4-methylpyridin-2-yl}-1H-imidazol-4-yl)cyclohexane-1,4-diol] | 0.00138 |
| Cc1cc(Nc2nccc(C(F)(F)F)n2)cc(-n2cnc([C@]3(O)CC[C@@H](CC(=O)O)CC3)c2)c1 [Example 16, {cis-4-hydroxy-4-[1-(3-methyl-5-{[4-(trifluoromethyl)pyrimidin-2-yl]amino}phenyl)-1H-imidazol-4-yl]-cyclohexyl}acetic acid] | 0.00164 |

The next lines start with the values.

| IC50 [µM] | SMILES |
| --- | --- |
| 0.015 | Cc1cc(Nc2nccc(C)n2)cc(-n2cnc(C(C)(O)[C@H]3CC[C@H](C(=O)O)CC3)c2)c1 (relative stereo) [Example 9, trans-4-[1-hydroxy-1-(1-{3-methyl-5-[(4-methyl-pyrimidin-2-yl)amino]-phenyl}-1H-imidazol-4-yl)ethyl]cyclohexane-carboxylic acid] |
| 0.00168 | Cc1cc(Nc2nccc(C(F)(F)F)n2)cc(-n2cnc(-c3ccc(C(=O)O)cc3)c2)c1 [Example 71, 4-[1-(3-methyl-5-{[4-(trifluoromethyl)pyrimidin-2-yl]amino}-phenyl)-1H-imidazol-4-yl]benzoic acid] |
